Data from patent publication US20100129343A1, “Use Of A Compound For Enhancing The Expression Of Membrane Proteins On The Cell Surface” (Axentis Pharma AG, priority 2004, published 2010).
Entries after “also recorded” stand apart in the source; their conditions may differ. Blank lines part the entries; values can stand above or below the compound they belong to.

Assays:
Type in all cases: cell-based
CFTR-ΔF508 [1] = assay: Immunoblot for GFP-tagged CFTR-ΔF508 expressed in HEK293 cells; conditions: 16 h, endoglycosidase H treated extract
Procedure: HEK293 cells (1*10^6 cells) were transfected with plasmids encoding CFTR or CFTR-ΔF508 (GFP-tagged) and/or co-transfected with effector plasmids. After 16h, the cells were treated with the varying concentrations of compounds. After 24h, the cells were harvested in phosphate-buffered saline, lysed by a freeze-thaw cycle and homogenized by sonication. The homogenate was resuspended in reducing Laemmli sample buffer (50 mM Tris.HCl, pH 6.8, 20% glycerol, 0.1% bromphenol blue, 2% SDS and 20 mM dithiothreitol); aliquots (15% of the original culture) were resolved on a denaturing polyacrylamide gel (monomer concentration in the stacking gel and in the running gel 4 and 8% respectively) and electrophoretically transferred to a nitrocellulose membrane. Immunodetection was done with an antiserum directed against GFP as the primary antibody and an anti-rabbit IgG coupled to horseradish peroxidase as the secondary antibody.
In a first example, Membranes from transfected cells were prepared and immunoblotted for GFP-tagged CFTR or CFTR-ΔF508, respectively (by using an antibody directed against the fluorescent protein).
The membrane extract was also treated endoglycosidase H. The rationale for this experiment is as follows: membrane proteins are core glycosylated in the endoplasmatic reticulum. Core gylcosylation is sensitive to endoglycosidase H. If the protein has reached the Golgi (and then trafficked to the plasma membrane), it acquires additional sugar moieties and becomes resistant to endoglycosidase H. It is evident from lane 3 in FIG. 6 that endoglycosidase H treatment reduces the apparent size of CFTR; thus, the bulk of the protein is still in the ER. The following lanes examine the expression of CFTR-ΔF508 (all extracts were treated with endoglycosidase H): lane 4 is the control, that is cells expressing CFTR-ΔF508; in lanes 5, 6, 7 and 8 cells expressing CFTR-ΔF508 were treated overnight (i.e. for 16 h) with 100 nM MG132, 20 μM kifunensine, 1 μM and 100 nM bortezomib, respectively.

CFTR-ΔF508 [2] = assay: FACS monitoring of GFP-tagged CFTR-ΔF508 expression in HEK293 cells
Procedure: (§1) Cultured HEK293 cells were transfected with plasmids encoding CFTR or CFTR-ΔF508 (GFP-tagged) and/or co-transfected with plasmids encoding USP4 (or an appropriate control plasmid) by using the CaPO4-precipitation method. Sixteen hours after transfection the cells were treated with varying concentrations of compounds. At a specific time point (here 24 h) the cells are trypsinized, fixed in ethanol, permeabilized and stained with propidium iodide (PI). The stained cells are subjected to FACS analysis
Because CFTR is tagged with a fluorescent protein, expression in individual cells can be monitored by fluorescence activated cell sorting (FACS). By contrast with fluorescence microscopy (where individual cells are picked), FACS allows to survey the entire cell population. In addition, FACS has the advantage that it allows for reasonable sample throughput; finally, automation and scale-up is readily possible. […]
The original data set is shown on the right hand side of the figures, respectively (see e.g. FIG. 7c): the x-axis is the propidium iodide fluorescence (note that the scale is linear). The y-axis is the GFP-fluorescence (=fluorescence associated with CFTR; note that the scale is logarithmic) and each dot corresponds to a cell. […]

HEK293 cells = assay: FACS propidium iodide staining: cell cycle distribution / apoptosis of HEK293 cells
Procedure: as §1
Transiently transfected HEK293 cells were fixed in ethanol 24 h after transfection as mentioned above and then stained with propidium iodide to label the DNA: the rationale was to examine the distribution of cells in the cell cycle (=to see if the expression of CFTR or of CFTR-ΔF508 was toxic or if the compounds employed killed the cells/drove them into apoptosis).
One can plot the cell counts against the propidium iodide fluorescence of the transfected cells (such as shown in, for example, FIG. 7b): This gives a peak of cells (denoted by M1) that have a 2n content of DNA (G1-cells), a shoulder of cells that have a DNA content of larger than 2n (denoted by M3 and representing cells that are in S-phase) and a second peak of cells that have a DNA content of 4n (denoted by M2 and representing cells in G2 and M-phase).

A2A-receptor = biological target: T1, A2A-receptor (Rattus norvegicus, UniProt P30543); assay: [3H]ZM241385 saturation binding to membranes from PC12 cells (endogenous A2A-receptor); conditions: 100 μM chloroquine for 3h
T1 construct: PC12 cells (that endogenously express the A2A-receptor); endogenous in cells; host or cells: PC12 (rat pheochromocytoma), membranes
Procedure: Membranes were prepared from PC12 cells, which had been incubated in the presence or in the absence of 50 μM MG132 or 100 μM chloroquine for 3h, and were incubated in buffer containing the indicated concentrations of [^3H]ZM241385 in the presence of 100 μM GTPγS.
Membranes (100 μg/assay) that had been prepared from PC12 cells or HEK293 cells transiently transfected with the appropriate plasmids were incubated in a final volume of 0.3 ml containing 50 mM Tris.HCl (pH 8.0), 1 mM EDTA, 5 mM MgCl2, 8 μg/ml adenosine deaminase and concentrations of [^3H]ZM241385 (specific activity ˜20 Ci/mmol) covering the range of 0.2 to 20 nM in the presence of 100 μM GTPγS (Klinger et al., 2002). After 60 min at room temperature, the reaction was terminated by rapid filtration over glass fiber filters. Nonspecific binding was determined in the presence of 10 μM XAC and amounted to 40% at the highest concentration of [^3H]ZM241385. The data points were fitted by non-linear regression to the equation describing a rectangular hyperbola. Assays were performed in duplicate.

T1 sequence (P30543 whole entry): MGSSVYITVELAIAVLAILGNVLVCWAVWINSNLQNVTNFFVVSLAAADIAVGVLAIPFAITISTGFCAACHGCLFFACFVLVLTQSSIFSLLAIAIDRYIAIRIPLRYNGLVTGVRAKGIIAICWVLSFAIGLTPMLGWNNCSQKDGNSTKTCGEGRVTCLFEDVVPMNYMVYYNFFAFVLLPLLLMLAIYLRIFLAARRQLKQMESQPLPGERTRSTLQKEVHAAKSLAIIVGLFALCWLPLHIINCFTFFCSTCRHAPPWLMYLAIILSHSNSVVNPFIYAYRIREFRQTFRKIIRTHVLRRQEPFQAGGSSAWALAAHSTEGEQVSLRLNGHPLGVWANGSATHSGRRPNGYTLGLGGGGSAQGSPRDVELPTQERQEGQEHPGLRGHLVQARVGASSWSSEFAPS

SMILES: O=C1N[C@@H]2[C@@H](O)[C@@H](O)[C@H](O)[C@@H](CO)N2C1=O [kifunensine]
- accumulation of CFTR-ΔF508 (intensity of staining vs control lane) (CFTR-ΔF508 [1]; 20 μM kifunensine): led to the accumulation of CFTR-ΔF508

SMILES: CC(C)C[C@H](NC(=O)[C@H](Cc1ccccc1)NC(=O)c1cnccn1)B(O)O [Bortezomib, N-(2-pyrazine)carbonyl-L-phenylalanine-L-leucine-boronic acid]
- CFTR-ΔF508-associated fluorescence (CFTR-ΔF508 [2]; 10 nM bortezomib): expression of CFTR is increased; also recorded: substantially increases the level of CFTR-ΔF508
- CFTR-ΔF508-associated fluorescence (CFTR-ΔF508 [2]; 100 nM bortezomib): expression of CFTR is increased
- accumulation of CFTR-ΔF508 (intensity of staining vs control lane) (CFTR-ΔF508 [1]; 100 nM bortezomib): led to the accumulation of CFTR-ΔF508; also recorded: more effective than 1 μM bortezomib
- accumulation of CFTR-ΔF508 (intensity of staining vs control lane) (CFTR-ΔF508 [1]; 1 μM bortezomib): led to the accumulation of CFTR-ΔF508
- cell cycle distribution (HEK293 cells; 10 nM bortezomib, CFTR-ΔF508 expressing cells): essentially the same as the one shown in control cells
- peak of the G1-cells (M1) (HEK293 cells; 100 nM Bortezomib, CFTR-ΔF508 expressing cells): greatly reduced
- number of cells with low propidium iodide fluorescence (apoptotic) (HEK293 cells; 100 nM bortezomib): number of cells with low propidium iodide fluorescence increases
- number of cells with low propidium iodide fluorescence (apoptotic) (HEK293 cells; 1 μM Bortezomib): number of cells with low propidium iodide fluorescence increases
- peak of the G1-cells (M1) (HEK293 cells; 1 μM Bortezomib, CFTR-ΔF508 expressing cells): greatly reduced
- cell mortality / apoptosis, general statement (HEK293 cells; within the therapeutic window (Bortezomib), very small dosage (MG132)): no increased cell mortality is observed

- A2A-receptor levels (A2A-receptor): did not affect the A2A-receptor levels
SMILES: CCN(CC)CCCC(C)Nc1ccnc2cc(Cl)ccc12 (stereo not drawn) [choloroquine, chloroquine]
